Measured values from PMC9289672, “Optimization of Antibacterial Activity in Tibetan Swine α-Helix Peptide TP by Site-Directed Mutagenesis” (Frontiers in Microbiology, 2022).
Like-named read-outs stand apart in the source and are kept apart here. Where no end group is shown, it is not given here.

Tests used:
Gram-negative bacteria = experiment: Geometric mean of MIC and therapeutic index; format: cell-based; conditions: MHC/GM; 128 μm used when 50% hemolysis not observed at 128 μm
Experimental: (§1) The bacteria were cultured overnight in the MHB medium and transferred to the new MHB the next day until the bacteria reached the exponential growth stage. The bacteria were diluted with MHB to 2 × 10^5 CFU/ml. About 50 μl of polypeptide and equal volume of bacterial suspension was added to a 96-well plate to give the final concentration of polypeptide between 1 and 128 μm. The last two columns are negative (MHB only) and positive (bacterial and MHB) controls and incubated at 37°C for 18–24 h. Optical density was measured at an absorbance wavelength of 492 nm using a microplate reader (Tecan GENios F129004, Tecan, Austria). At least three independent measurements were taken. Each trial was conducted two times in parallel. A total of three independent assays were carried out.
(§2) Trp is a hydrophobic amino acid with aromatic side chains. It is a special amino acid in peptide design. Previous studies have pointed out that introducing amino acids will also bring toxicity while improving activity. […] For further evaluating the cell selectivity of the peptides, we also calculated the SI which defined as the ratio of MHC to the geometric mean (GM) (Dufourc, [2008]).

Gram-positive bacteria = experiment: Geometric mean of MIC and therapeutic index; format: cell-based; conditions: MHC/GM; 128 μm used when 50% hemolysis not observed at 128 μm
Experimental: as §1, §2

[1] = test system: Methicillin-resistant Staphylococcus aureus (MRSA) 43300; conditions: Methicillin-resistant 43300
Source text: (§3) The bacteria strains Escherichia coli ATCC 25922, Escherichia coli UB1005, Salmonella typhimurium ATCC 14028, Salmonella typhimurium C7731, Pseudomonas aeruginosa ATCC 27853, Pseudomonas aeruginosa PAO1, Staphylococcus aureus ATCC 29213, Staphylococcus aureus ATCC 25923, Methicillin-resistant Staphylococcus aureus (MRSA) 43300, Enterococcus faecalis ATCC 29212, and Staphylococcus epidermidis ATCC 12228 were obtained from the College of Veterinary Medicine, Northeast Agricultural University (Harbin, China).
as §1

[2] = test system: Staphylococcus aureus ATCC 25923
Source text: as §3, §1

[3] = test system: Staphylococcus epidermidis ATCC 12228
Source text: as §3, §1

Escherichia coli UB1005 = conditions: MHB, bacteria diluted to 2 × 10^5 CFU/ml, peptide 1-128 μm, 37°C 18-24 h, OD 492 nm; three independent assays, two in parallel
Source text: as §3, §1

[4] = test system: Pseudomonas aeruginosa ATCC 27853
Source text: as §3, §1

[5] = test system: Staphylococcus aureus ATCC 29213
Source text: as §3, §1

[6] = test system: Escherichia coli ATCC 25922
Source text: as §3, §1

[7] = test system: Salmonella typhimurium ATCC 14028
Source text: as §3, §1

[8] = test system: Pseudomonas aeruginosa PAO1
Source text: as §3, §1

[9] = test system: Salmonella typhimurium C7731; conditions: MHB, bacteria diluted to 2 × 10^5 CFU/ml, peptide 1-128 μm, 37°C 18-24 h, OD 492 nm; three independent assays, two in parallel
Source text: as §3, §1

[10] = test system: Enterococcus faecalis ATCC 29212
Source text: as §3, §1

[11] = test system: hRBCs (human red blood cells); experiment: Hemolytic activity; conditions: three independent assays, two in parallel
Experimental: (§4) The cytotoxicity of each peptide was assessed with IPEC-J12 and HEK 293T cells. […] Each trial was conducted two times in parallel. A total of three independent assays were carried out.

all strains in Table 2 = experiment: Geometric mean of MIC and therapeutic index; format: cell-based; conditions: MHC/GM; 128 μm used when 50% hemolysis not observed at 128 μm
Experimental: as §1
Trp is a hydrophobic amino acid with aromatic side chains. It is a special amino acid in peptide design. Previous studies have pointed out that introducing amino acids will also bring toxicity while improving activity. Therefore, at the beginning of the design, we predicted that selecting Trp as hydrophobic amino acid to substitute H-H position would bring certain toxicity to the peptide. Thus, as expected, the introduction of Trp increases the activity and toxicity of these peptides. […] Meanwhile, the virulence of TP(i+4) 1&2&5&6 and TP(i+4) 1&2&6&7 was lower than that of TP(i+4) 1&2&5&7. We infer that the location of hydrophobic centers can effectively reduce peptide toxicity by Trp substitution. For further evaluating the cell selectivity of the peptides, we also calculated the SI which defined as the ratio of MHC to the geometric mean (GM) (Dufourc, [2008]).

[12] = test system: hRBCs (human red blood cells)
Experimental: as §4

Substance | Therapeutic index (TI), Gram-negative bacteria (Gram-negative bacteria) | Therapeutic index (TI), Gram-positive bacteria (Gram-positive bacteria) | MIC, S. aureus 43300 [1] [µM] | MIC, S. aureus 25923 [2] [µM] | MIC, S. epidermidis 12228 [3] [µM] | MIC, E. coli UB1005 (Escherichia coli UB1005) [µM] | MIC, P. aeruginosa 27853 [4] [µM] | MIC, S. aureus 29213 [5] [µM] | MIC, E. coli 25922 [6] [µM] | MIC, S. typhimurium 14028 [7] [µM] | MIC, P. aeruginosa PAO1 [8] [µM] | MIC, S. typhimurium 7731 [9] [µM] | MIC, E. faecalis 29212 [10] [µM] | MHC (concentration of peptide that causes hemolysis of 50% of human red blood cells) [11] [µM] | Therapeutic index (TI) / selectivity index (SI), All (all strains in Table 2) | MHC (concentration of peptide that causes hemolysis of 50% of human red blood cells) [12] [µM]
ASVVKWLTKWVAKLLK-NH2 [TP(i+4) 1&2&7] | 14.25 | 18.39 | 4 | 4 | 4 | 4 | 4 | 2 | 4 | 4 | 4 | 8 | 4 | 64.00 | 16.19 | –
ASVVKWLWKWVWKLLK-NH2 [TP(i+4) 1&2&5&7] | 1.26 | 6.06 | 16 | 16 | 8 | 16 | >128 | 8 | 16 | 32 | >128 | >128 | 8 | 64.00 | 2.76 | –
ASVVKWWTKWWAKLLK-NH2 [TP(i+4) 1&2&6&7] | 12.70 | 27.83 | 4 | 2 | 2 | 4 | 8 | 2 | 4 | 4 | 4 | 8 | 2 | 64.00 | 18.80 | –
ASVVKWWWKWWWKLLK-NH2 [TP(i+4) 1&2&5&6&7] | 3.17 | 3.03 | 4 | 4 | 2 | 2 | 4 | 2 | 1 | 2 | 4 | 4 | 2 | 8.00 | 3.10 | –
ASVVNKLTKKVAKLLK-NH2 [TP(i+4) 2&4] | 8.00 | 1.00 | >128 | >128 | >128 | 8 | 32 | >128 | 8 | 64 | 8 | 16 | >128 | – | 2.83 | >128
